Test results published in patent US6747050B1, “Isoxazoline derivative and a process for the preparation thereof” (LG Chem Investment Ltd., priority 1999, dated 2004).

Tests used:
[1] = test system: C57BL/6 female mice; test: TNFα-induced liver toxicity and lethality in mice; format: in vivo; settings: TNFα/ActD
Experimental: […] C57BL/6 female mice (18-20 g) were injected i.p. with compound 33MP dissolved in vehicle which consists of olive oil and 10% DMSO, or vehicle alone, at 1 hr before i.v. injection with 10 μg of Anti-Fas antibody (Jo2). Following 4 hrs of i.v. injection with Jo2 antibody, animals were placed under inhaled isoflurane anesthesia for blood collection and liver isolation. […] 8 hrs later, blood and liver tissues were isolated from anesthetized animals. The liver tissues were snap-frozen and stored at −80° C. until use. Plasma was isolated from blood by centrifugation at 12,000×g for 10 min at 4° C. and stored at −80° C. In some experiments for animal mortality, mice were i.p. injected with TNFα/GalN and caspase inhibitor was injected 1 hr before, simultaneously, 2 hrs, or 4 hrs after TNFα/GalN injection
(§1) Whole tissues (0.5 g) were homogenated in ice-cold lysis buffer (5 mM Tris, 20 mM EDTA, 0.5% Triton-X 100, pH8.0). […] The supernatant was obtained and extracted twice with a mixture of phenol and chloroform. One-tenth volume of 3 M sodium acetate was added to the solution, and DNA was precipitated by adding an equal volume of isopropanol. After storing at −20° C. overnight, a DNA pellet was obtained by centrifugation at 12,000×g for 15 min. at 4° C. and washed twice with 75% ethanol. The pellet was dried and resuspended in 100 μl of 20 mM Tris-HCl, pH 8.0. After digesting RNA with DNase-free RNase (0.1 mg/ml, at 37° C. for 1 hr, samples […] were electrophoresed through a 1.2% agarose gel in 450 mM Tris borate+EDTA (TBE), pH 8.0 buffer. DNA was photographed under visualized with UV light.
(§2) Liver tissues were homogenated in 10 mM HEPES buffer containing protease inhibitors (5 μg/ml aprotinin, 5 μg/ml pepstatin A, 10 μg/ml leupeptin, and 0.5 mM PMSF) and lysed by three feeze/thaw cycles. […] Protein concentration was determined with BCA protein assay reagent (pierce, Rockford, Ill.). Cytosol containing 200 μg protein was combined in 96-well plate with […] of synthetic substrate Ac-DEVD-pNA in 150 μl of 100 mM HEPES, pH 7.4, containing the protease inhibitors, and the reaction was conducted for 1 hr at 37° C. […] Plasma level of aspartate aminotransferase (AST) was analyzed by spectrophotometry using each enzyme assay kit (Sigma).

[2] = test system: C57BL/6 female mice; test: anti-Fas antibody (Jo2)-induced liver apoptosis and lethality in mice; format: in vivo
Experimental: […] C57BL/6 female mice (18-20 g) were injected i.p. with compound 33MP dissolved in vehicle which consists of olive oil and 10% DMSO, or vehicle alone, at 1 hr before i.v. injection with 10 μg of Anti-Fas antibody (Jo2). Following 4 hrs of i.v. injection with Jo2 antibody, animals were placed under inhaled isoflurane anesthesia for blood collection and liver isolation. Mice were also i.p. injected with 0.2 μg/20 g of TNFα and 12 mg/20 g of D-galactosamine (TNFα/GalN) and compound 33MP or its salt form (Compound 33MP-Na). 8 hrs later, blood and liver tissues were isolated from anesthetized animals. The liver tissues were snap-frozen and stored at −80° C. until use. Plasma was isolated from blood by centrifugation at 12,000×g for 10 min at 4° C. and stored at −80° C. In some experiments for animal mortality, mice were i.p. injected with TNFα/GalN and caspase inhibitor was injected 1 hr before, simultaneously, 2 hrs, or 4 hrs after TNFα/GalN injection
as §1, §2

[3] = test system: caspase-3-like activity (Ac-DEVD-pNA); test: Caspase-3-like activity in TNFα/ActD-treated primary rat hepatocytes; format: cell-based; settings: 100 μM, 8 hrs
Experimental: Primary rat hepatocytes were isolated and purified from male Sprague-Dawley rats using a collagenase digestion method. The hepatocytes were purified over 30% Percoll gradient by centrifugation at 1,000×g for 10 min. at 4° C. […] The cells were plated on collagen-coated tissue culture plates at a density of 2×10^5 cells/well in 12-well plates for cell viability analysis or 5×10^6 cells/100 mm dish for enzyme assays. After 18 hrs preculture, the cells were treated with 2,000 units/ml TNFα and 0.2 μg/ml Actinomycin (ActD). Caspase activity and cell viability was determined by colorimetry using a caspase substrate Ac-DEVD-pNA and crystal violet staining method at 8 hrs and 12 hrs, respectively.

[4] = biological target: T1, caspase-3 (Homo sapiens, UniProt P42574); test: Recombinant caspase enzyme inhibition, fluorogenic substrate Ac-DEVD-AMC; format: biochemical; settings: Irreversible Inhibitors; read-out: Kobs/[I] for caspase-3
T1 construct: made in house; host or cells: transformed bacterium (pET vector)
T1 sequence (P42574 29-175 limits assumed): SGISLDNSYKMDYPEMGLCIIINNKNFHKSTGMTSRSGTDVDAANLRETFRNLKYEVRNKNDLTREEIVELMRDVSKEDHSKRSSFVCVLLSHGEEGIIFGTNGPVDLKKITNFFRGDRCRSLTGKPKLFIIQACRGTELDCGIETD
T1 sequence (P42574 176-277 limits assumed): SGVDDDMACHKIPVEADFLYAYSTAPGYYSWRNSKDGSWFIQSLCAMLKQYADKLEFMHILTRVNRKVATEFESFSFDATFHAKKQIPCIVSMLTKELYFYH
Experimental: (§3) In the present experiment recombinant caspases were purified from a transformed bacterium after human caspase genes were cloned into the expression vector pET, and then used in the experiment (Thornberry, N. A. et al. Nature, 1992, 356, 768. Thornberry, N. A. Methods in Enzymology, 1994, 615.).
(§4) Enzymatic activity was measured by a known procedure (Walker N. P. C. et al., Cell 1994, 78, 343). Briefly, 10 ng of recombinant protein was mixed with 50 mM Tris(pH 7.0), 1 mM DTT, 0.5 mM EDTA, 10% Glycerol buffer containing 1˜100 μM of enzyme substrate, Ac-YVAD-AMC or Ac-DEVD-AMC and then the changes by isolated AMC at 37° C. were recorded. The inhibitory activity for caspases was calculated from the early enzyme reaction rate by measuring the changes with fluorescence excited at […] and emitted at 460 nm (Range; Ki<100 nM).

[5] = biological target: T2, caspase-1 (Homo sapiens, UniProt P29466); test: Recombinant caspase enzyme inhibition, fluorogenic substrate Ac-YVAD-AMC; format: biochemical; settings: Irreversible Inhibitors; read-out: Kobs/[I] for caspase-1
T2 construct: made in house; host or cells: transformed bacterium (pET vector)
T2 sequence (P29466 120-297 limits assumed): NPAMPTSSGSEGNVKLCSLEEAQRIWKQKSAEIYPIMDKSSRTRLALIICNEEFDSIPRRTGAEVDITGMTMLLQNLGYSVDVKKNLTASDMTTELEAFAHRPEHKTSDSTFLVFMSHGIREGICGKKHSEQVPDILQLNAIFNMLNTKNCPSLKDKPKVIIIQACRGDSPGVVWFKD
T2 sequence (P29466 317-404 limits assumed): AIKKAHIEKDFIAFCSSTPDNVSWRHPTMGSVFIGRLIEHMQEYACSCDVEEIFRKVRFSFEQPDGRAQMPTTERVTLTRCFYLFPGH
Experimental: as §3, §4

CC(C)[C@H](NC(=O)c1cccc2ccccc12)C1=NOC(Cc2ccccc2)(C(=O)N[C@@H](CC(=O)O)C(=O)COC(=O)c2c(Cl)cccc2Cl)C1 (stereo partly drawn) [Compound 33MP, (3S)-3-{3-[2-Methyl-(1S)-1-(1-naphthalenecarbonylamino)-propyl]-5-phenylmethyl-4,5-dihydro-isoxazole-5-carbonylamino}-4-keto-5-(2,6-dichlorobenzoyloxy)-pentanoic Acid]
DNA fragmentation in liver tissues (FIG. 12A) [1]: significantly reduced | caspase-3-like activity in liver (FIG. 13) [1]: suppressed | inhibitory effect on caspase activity compared with Z-VAD-fmk [1]: higher | protective effect compared with Z-VAD-fmk [1]: higher | release of AST (FIG. 12B) [1]: suppressed | liver apoptosis determined by DNA fragmentation (FIG. 9A) ([2]; 0.4 mg/20 g, 1 mg/20 g i.p. 1 hr before antibody, 4 hrs): suppressed the liver apoptosis in a dose-dependent manner | release of liver enzyme AST (FIG. 9B) ([2]; 4 hrs after anti-Fas antibody): significantly suppressed | caspase-3-like activity in liver tissues (FIG. 10) ([2]; anti-Fas antibody increased activity about 25-folds): abrogated | inhibition of mortality compared with Z-VAD-fmk ([2]; mouse, in vivo): more effective | suppression of AST release compared with Z-VAD-fmk ([2]; mouse, in vivo): higher | suppression of liver apoptosis compared with Z-VAD-fmk ([2]; mouse, in vivo): higher | reduction of mortality (FIG. 11) ([2]; within 24 hrs, antibody alone 85% died): about 30% | caspase-3-like activity increased by TNFα/ActD (FIG. 15A) [3]: not different

CC(C)[C@H](NC(=O)c1cc2ccccc2[nH]1)C1=NOC(Cc2ccccc2)(C(=O)N[C@@H](CC(=O)O)C(=O)COC(=O)c2c(Cl)cccc2Cl)C1 (stereo partly drawn) [Compound 64, (3S)-3-{3-[2-Methyl-(1S)-1-(indole-2-carbonylamino)-propyl]-5-phenylmethyl-4,5-dihydro-isoxazole-5-carbonylamino}-4-keto-5-(2,6-dichlorobenzoyloxy)-pentanoic Acid]
kinact/KI [4]: 1230 M⁻¹ s⁻¹ | kinact/KI [5]: 707000 M⁻¹ s⁻¹

CC(C)[C@H](NC(=O)c1c[nH]c2ccccc12)C1=NOC(Cc2ccccc2)(C(=O)N[C@@H](CC(=O)O)C(=O)COC(=O)c2c(Cl)cccc2Cl)C1 (stereo partly drawn) [Compound 66, (3S)-3-{3-[2-Methyl-(1S)-1-(indole-3-carbonylamino)-propyl]-5-phenylmethyl-4,5-dihydro-isoxazole-5-carbonylamino}-4-keto-5-(2,6-dichlorobenzoyloxy)-pentanoic Acid]
kinact/KI [4]: 1560 M⁻¹ s⁻¹ | kinact/KI [5]: 357000 M⁻¹ s⁻¹

CC(C)[C@H](NC(=O)c1cccc2ccccc12)C1=NOC(C)(C(=O)N[C@@H](CC(=O)O)C(=O)COC(=O)c2c(Cl)cccc2Cl)C1 (stereo partly drawn) [Compound 68, (3S)-3-{3-[2-Methyl-(1S)-1-(naphthalene-1-carbonylamino)-propyl]-5-methyl-4,5-dihydro-isoxazole-5-carbonylamino}-4-keto-5-(2,6-dichlorobenzoyloxy)-pentanoic Acid]
kinact/KI [4]: 2390 M⁻¹ s⁻¹ | kinact/KI [5]: 616000 M⁻¹ s⁻¹
